Results: PubChem BioAssay (NCI)
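Cultured in 96-well plates, cells were exposed to test compound for 48 hours across five concentrations. At the GI50, growth is halved. TGI: concentration producing complete growth inhibition.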

How the values were obtained:
Experiment in all cases: growth of human tumour cells (NCI), 48 h
[1] = tested on: 786-0 renal
[2] = tested on: A498 renal
[3] = tested on: A549 NSCLC
[4] = tested on: ACHN renal
[5] = tested on: BT-549 breast
[6] = tested on: CAKI-1 renal
[7] = tested on: CCRF-CEM leukemia
[8] = tested on: COLO 205 colon
[9] = tested on: DU-145 prostate
[10] = tested on: EKVX NSCLC
[11] = tested on: HCC-2998 colon
[12] = tested on: HCT-116 colon
[13] = tested on: HCT-15 colon
[14] = tested on: HL-60(TB) leukemia
[15] = tested on: HOP-62 NSCLC
[16] = tested on: HOP-92 NSCLC
[17] = tested on: HS 578T breast
[18] = tested on: HT29 colon
[19] = tested on: IGROV1 ovarian
[20] = tested on: K-562 leukemia
[21] = tested on: KM12 colon
[22] = tested on: LOX IMVI melanoma
[23] = tested on: M14 melanoma
[24] = tested on: MALME-3M melanoma
[25] = tested on: MCF7 breast
[26] = tested on: MDA-MB-435
[27] = tested on: MDA-MB-468 breast
[28] = tested on: MOLT-4 leukemia
[29] = tested on: NCI-H226 lung
[30] = tested on: NCI-H23 lung
[31] = tested on: NCI-H460 lung
[32] = tested on: NCI-H522 lung
[33] = tested on: NCI/ADR-RES ovarian
[34] = tested on: OVCAR-3 ovarian
[35] = tested on: OVCAR-4 ovarian
[36] = tested on: OVCAR-5 ovarian
[37] = tested on: OVCAR-8 ovarian
[38] = tested on: PC-3 prostate
[39] = tested on: RPMI-8226 leukemia
[40] = tested on: RXF 393 renal
[41] = tested on: SF-268 CNS
[42] = tested on: SF-295 CNS
[43] = tested on: SF-539 CNS
[44] = tested on: SK-MEL-2 melanoma
[45] = tested on: SK-MEL-28 melanoma
[46] = tested on: SK-MEL-5 melanoma
[47] = tested on: SK-OV-3 ovarian
[48] = tested on: SN12C renal
[49] = tested on: SNB-19 CNS
[50] = tested on: SNB-75 CNS
[51] = tested on: SW-620 colon
[52] = tested on: T-47D breast
[53] = tested on: TK-10 renal
[54] = tested on: U251 CNS
[55] = tested on: UACC-257 melanoma
[56] = tested on: UACC-62 melanoma

SMILES: CCCCCCCCCCCCCCCCCCCC(=O)NCCc1c[nH]c2ccc(OC(=O)CCCC(=O)OCCOOCCOOCCOOCCOOCCOOCCOOCCOOCCOOCCOOCCOOCCOOCCOC)cc12
- GI50 [1]: > 100 µM
- TGI [1]: > 100 µM
- GI50 [2]: > 100 µM
- TGI [2]: > 100 µM
- GI50 [3]: 21.7 µM
- TGI [3]: 62.3 µM
- GI50 [4]: 25.2 µM
- TGI [4]: > 100 µM
- GI50 [5]: 4.15 µM
- TGI [5]: 14 µM
- GI50 [6]: 34 µM
- TGI [6]: > 100 µM
- GI50 [7]: 0.769 µM
- TGI [7]: 8.4 µM
- GI50 [8]: > 100 µM
- TGI [8]: > 100 µM
- GI50 [9]: 24.8 µM
- TGI [9]: > 100 µM
- GI50 [10]: 26.9 µM
- TGI [10]: > 100 µM
- GI50 [11]: 44.7 µM
- TGI [11]: > 100 µM
- GI50 [12]: 30.7 µM
- TGI [12]: > 100 µM
- GI50 [13]: 31 µM
- TGI [13]: > 100 µM
- GI50 [14]: 2.53 µM
- TGI [14]: 10.3 µM
- GI50 [15]: 26.7 µM
- TGI [15]: > 100 µM
- GI50 [16]: 18.6 µM
- TGI [16]: 44.8 µM
- GI50 [17]: 38.7 µM
- TGI [17]: > 100 µM
- GI50 [18]: 32.9 µM
- TGI [18]: > 100 µM
- GI50 [19]: 16.2 µM
- TGI [19]: 38.9 µM
- GI50 [20]: 5.59 µM
- TGI [20]: 26.4 µM
- GI50 [21]: 17.5 µM
- TGI [21]: 52.6 µM
- GI50 [22]: 13.4 µM
- TGI [22]: 33.1 µM
- GI50 [23]: 29 µM
- TGI [23]: > 100 µM
- GI50 [24]: 54.3 µM
- TGI [24]: > 100 µM
- GI50 [25]: 24.1 µM
- TGI [25]: > 100 µM
- GI50 [26]: 41.2 µM
- TGI [26]: > 100 µM
- GI50 [27]: 29.6 µM
- TGI [27]: > 100 µM
- GI50 [28]: 4.61 µM
- TGI [28]: 23 µM
- GI50 [29]: 14 µM
- TGI [29]: 33.1 µM
- GI50 [30]: 18.9 µM
- TGI [30]: 42.4 µM
- GI50 [31]: 27.9 µM
- TGI [31]: > 100 µM
- GI50 [32]: 2.7 µM
- TGI [32]: 9.36 µM
- GI50 [33]: 21.8 µM
- TGI [33]: 72 µM
- GI50 [34]: 10.7 µM
- TGI [34]: 25.6 µM
- GI50 [35]: 20.8 µM
- TGI [35]: 95.1 µM
- GI50 [36]: 68 µM
- TGI [36]: > 100 µM
- GI50 [37]: 16 µM
- TGI [37]: 38.5 µM
- GI50 [38]: 11.6 µM
- TGI [38]: 49.5 µM
- GI50 [39]: 3.22 µM
- TGI [39]: 26.5 µM
- GI50 [40]: 18.9 µM
- TGI [40]: 39.2 µM
- GI50 [41]: 15.2 µM
- TGI [41]: 47.1 µM
- GI50 [42]: 15.7 µM
- TGI [42]: 31.6 µM
- GI50 [43]: 11 µM
- TGI [43]: 25.3 µM
- GI50 [44]: 26.1 µM
- TGI [44]: > 100 µM
- GI50 [45]: > 100 µM
- TGI [45]: > 100 µM
- GI50 [46]: 40.8 µM
- TGI [46]: > 100 µM
- GI50 [47]: > 100 µM
- TGI [47]: > 100 µM
- GI50 [48]: 12.6 µM
- TGI [48]: 33.2 µM
- GI50 [49]: 22.4 µM
- TGI [49]: 62.8 µM
- GI50 [50]: > 100 µM
- TGI [50]: > 100 µM
- GI50 [51]: 35.5 µM
- TGI [51]: > 100 µM
- GI50 [52]: 14.9 µM
- TGI [52]: > 100 µM
- GI50 [53]: > 100 µM
- TGI [53]: > 100 µM
- GI50 [54]: 17.1 µM
- TGI [54]: 33.9 µM
- GI50 [55]: > 100 µM
- TGI [55]: > 100 µM
- GI50 [56]: 34.8 µM
- TGI [56]: > 100 µM
